Experimental data taken from patent US20100115635A1, “Methods for Assessing the Delivery of Exogenous Agents” (Abbott Laboratories, priority 2007, published 2010).

Tested on: MDA-tetR-ODC/Luc liver tumors
Assay: bioluminescence imaging of MDA-tetR-ODC/Luc liver tumors
Assay type: in vivo, mice
Settings: 4 days after doxycycline treatment
Text: A MDA-tetR-ODC/Luc cell line was created from MDA-MB435-SLM-derived cell line with a stably integrated tetR-ODC expression cassette and a tet-responsive firefly luciferase reporter. FIG. 6A). The MDA-tetR-ODC/Luc cells were inoculated into skid mice to establish liver tumors. The mice were imaged before doxycycline treatment (top panel of FIG. 6A) or 4 days after doxycycline treatment (bottom panel of FIG. 6A). […] FIG. 6B) Monitoring target knockdown in the MDA-tetR-ODC/Luc cell-derived liver tumors using imaging. The MDA-tetR-ODC/Luc cells were inoculated into skid mice to establish liver tumors. […] Mice were imaged before dosing and 2 days after the last dose. […] The mice were imaged before doxycycline treatment (top panel of FIG. 6B) or 4 days after doxycycline treatment (bottom panel of FIG. 6B).

## C[C@H]1c2cccc(O)c2C(=O)C2=C(O)[C@]3(O)C(=O)C(C(N)=O)=C(O)[C@@H](N(C)C)[C@@H]3[C@@H](O)[C@@H]21 [doxycycline]
  increase of luminescent signal compared to untreated mice: more than 100 fold
